Data from the NIST ThermoML archive (doi:10.1016/j.fluid.2014.09.014).

Assay: refractive index (other wavelength) (dimensionless); xn = mol fraction of the nth substance listed
Conditions: 101 kPa, Liquid, Standard Abbe refractometry

CC(C)OC(C)C [diisopropyl ether] + CC(C)O
refractive index
Conditions | Wavelength=404.7 nm | Wavelength=435.8 nm | Wavelength=486.1 nm | Wavelength=546.1 nm | Wavelength=587.6 nm | Wavelength=589.3 nm | Wavelength=632.8 nm | Wavelength=644 nm | Wavelength=706.5 nm
293.5 K, x1 = 0.0277 | 1.388 | 1.38493 | 1.38147 | 1.3786 | 1.37708 | 1.37703 | 1.37572 | 1.37541 | 1.37391
293.5 K, x1 = 0.0507 | 1.3879 | 1.38485 | 1.38137 | 1.3785 | 1.37699 | 1.37693 | 1.37562 | 1.37531 | 1.37381
293.5 K, x1 = 0.051 | 1.38799 | 1.38492 | 1.38146 | 1.37859 | 1.37708 | 1.37702 | 1.3757 | 1.37539 | 1.37389
293.5 K, x1 = 0.0717 | 1.38774 | 1.38468 | 1.38121 | 1.37834 | 1.37683 | 1.37678 | 1.37545 | 1.37515 | 1.37366
293.5 K, x1 = 0.1528 | 1.38719 | 1.38413 | 1.38066 | 1.37779 | 1.37629 | 1.37623 | 1.37492 | 1.37461 | 1.37313
293.5 K, x1 = 0.1553 | 1.38719 | 1.38413 | 1.38066 | 1.37779 | 1.37629 | 1.37623 | 1.37492 | 1.37461 | 1.37313
293.5 K, x1 = 0.1938 | 1.38688 | 1.38381 | 1.38034 | 1.37747 | 1.37597 | 1.37591 | 1.37461 | 1.3743 | 1.37281
293.5 K, x1 = 0.2029 | 1.38669 | 1.38364 | 1.38016 | 1.3773 | 1.3758 | 1.37574 | 1.37443 | 1.37411 | 1.37263
293.5 K, x1 = 0.245 | 1.3865 | 1.38325 | 1.37977 | 1.37692 | 1.37541 | 1.37536 | 1.37405 | 1.37374 | 1.37227
293.5 K, x1 = 0.297 | 1.38605 | 1.383 | 1.37951 | 1.37666 | 1.37514 | 1.37509 | 1.37378 | 1.37347 | 1.372
293.5 K, x1 = 0.2973 | 1.38627 | 1.3832 | 1.37973 | 1.37687 | 1.37535 | 1.3753 | 1.374 | 1.3737 | 1.37222
293.5 K, x1 = 0.3068 | 1.38571 | 1.38264 | 1.37919 | 1.37631 | 1.37481 | 1.37475 | 1.37345 | 1.37314 | 1.37167
293.5 K, x1 = 0.398 | 1.38461 | 1.38154 | 1.37808 | 1.37522 | 1.37371 | 1.37366 | 1.37236 | 1.37206 | 1.37061
293.5 K, x1 = 0.4609 | 1.38404 | 1.38098 | 1.37753 | 1.37466 | 1.37315 | 1.3731 | 1.3718 | 1.3715 | 1.37005
293.5 K, x1 = 0.5434 | 1.38333 | 1.38026 | 1.37682 | 1.37395 | 1.37246 | 1.3724 | 1.37111 | 1.37078 | 1.36934
293.5 K, x1 = 0.6032 | 1.38277 | 1.37972 | 1.37624 | 1.3734 | 1.37188 | 1.37182 | 1.37052 | 1.37023 | 1.36879
293.5 K, x1 = 0.6371 | 1.3824 | 1.37934 | 1.37588 | 1.37304 | 1.37152 | 1.37146 | 1.37017 | 1.36988 | 1.36844
293.5 K, x1 = 0.701 | 1.38179 | 1.37873 | 1.37528 | 1.37243 | 1.37093 | 1.37087 | 1.36958 | 1.36928 | 1.36784
293.5 K, x1 = 0.754 | 1.38141 | 1.37834 | 1.3749 | 1.37205 | 1.37055 | 1.37049 | 1.3692 | 1.36891 | 1.36746
293.5 K, x1 = 0.791 | 1.38107 | 1.37802 | 1.37455 | 1.37172 | 1.37022 | 1.37016 | 1.36887 | 1.36857 | 1.36713
293.5 K, x1 = 0.8296 | 1.38071 | 1.37766 | 1.37423 | 1.37135 | 1.36987 | 1.36982 | 1.36854 | 1.36824 | 1.3668
293.5 K, x1 = 0.8864 | 1.38051 | 1.37747 | 1.374 | 1.37116 | 1.36966 | 1.36961 | 1.36832 | 1.36802 | 1.36658
293.5 K, x1 = 0.8903 | 1.38011 | 1.37706 | 1.37363 | 1.37076 | 1.36928 | 1.36922 | 1.36795 | 1.36765 | 1.3662
293.5 K, x1 = 0.9113 | 1.37989 | 1.37684 | 1.37339 | 1.37055 | 1.36905 | 1.369 | 1.36771 | 1.36741 | 1.36598
293.5 K, x1 = 0.9547 | 1.37948 | 1.37645 | 1.37301 | 1.37015 | 1.36866 | 1.36861 | 1.36732 | 1.36702 | 1.36559
293.5 K, x1 = 0.973 | 1.37918 | 1.37614 | 1.37271 | 1.36984 | 1.36836 | 1.3683 | 1.36703 | 1.36673 | 1.36529
293.5 K, x1 = 0.9771 | 1.37921 | 1.37617 | 1.37274 | 1.36988 | 1.36839 | 1.36834 | 1.36706 | 1.36675 | 1.36532
293.5 K, x1 = 1 | 1.37888 | 1.37585 | 1.37241 | 1.36955 | 1.36806 | 1.36801 | 1.36674 | 1.36644 | 1.36501
298.15 K, x1 = 0.0277 | 1.38582 | 1.38277 | 1.37932 | 1.37648 | 1.37498 | – | – | – | –
298.15 K, x1 = 0.0507 | 1.38573 | 1.38268 | 1.37925 | 1.37639 | 1.37488 | – | – | – | –
298.15 K, x1 = 0.051 | 1.38574 | 1.38276 | 1.37929 | 1.37644 | 1.37491 | – | – | – | –
298.15 K, x1 = 0.0717 | 1.38551 | 1.38247 | 1.37903 | 1.37618 | 1.37468 | – | – | – | –
298.15 K, x1 = 0.1528 | 1.38491 | 1.38186 | 1.37841 | 1.37557 | 1.37406 | – | – | – | –
298.15 K, x1 = 0.1553 | 1.38491 | 1.38186 | 1.37841 | 1.37557 | 1.37406 | – | – | – | –
298.15 K, x1 = 0.1938 | 1.38463 | 1.38158 | 1.37814 | 1.3753 | 1.37379 | – | – | – | –
298.15 K, x1 = 0.2029 | 1.38436 | 1.38132 | 1.37787 | 1.37502 | 1.37351 | – | – | – | –
298.15 K, x1 = 0.245 | 1.38392 | 1.38088 | 1.37746 | 1.37462 | 1.37311 | – | – | – | –
298.15 K, x1 = 0.297 | 1.38349 | 1.38044 | 1.377 | 1.37426 | 1.37265 | – | – | – | –
298.15 K, x1 = 0.2973 | 1.38372 | 1.38067 | 1.37725 | 1.37439 | 1.37289 | – | – | – | –
298.15 K, x1 = 0.3068 | 1.38326 | 1.38023 | 1.37678 | 1.37394 | 1.37243 | – | – | – | –
298.15 K, x1 = 0.398 | 1.38211 | 1.37907 | 1.37562 | 1.37278 | 1.37127 | – | – | – | –
298.15 K, x1 = 0.4609 | 1.3815 | 1.37845 | 1.37502 | 1.37217 | 1.37067 | – | – | – | –
298.15 K, x1 = 0.5434 | 1.38067 | 1.37764 | 1.3742 | 1.37135 | – | – | – | – | –
298.15 K, x1 = 0.6032 | 1.3801 | 1.37707 | 1.37364 | 1.3708 | – | – | – | – | –
298.15 K, x1 = 0.6371 | 1.37972 | 1.37669 | 1.37328 | 1.37042 | – | – | – | – | –
298.15 K, x1 = 0.701 | 1.37906 | 1.37604 | 1.37261 | 1.36978 | – | – | – | – | –
298.15 K, x1 = 0.754 | 1.37868 | 1.37567 | 1.37225 | 1.3694 | – | – | – | – | –
298.15 K, x1 = 0.791 | 1.3783 | 1.37529 | 1.37188 | 1.36903 | – | – | – | – | –
298.15 K, x1 = 0.8296 | 1.37799 | 1.37498 | 1.37154 | 1.36872 | – | – | – | – | –
298.15 K, x1 = 0.8864 | 1.37775 | 1.37471 | 1.37132 | 1.36847 | – | – | – | – | –
298.15 K, x1 = 0.8903 | 1.37734 | 1.37434 | 1.3709 | 1.36807 | – | – | – | – | –
298.15 K, x1 = 0.9113 | 1.37711 | 1.37411 | 1.37068 | 1.36785 | – | – | – | – | –
298.15 K, x1 = 0.9547 | 1.37676 | 1.37367 | 1.37025 | 1.36742 | – | – | – | – | –
298.15 K, x1 = 0.973 | 1.37634 | 1.37334 | 1.36994 | 1.3671 | – | – | – | – | –
298.15 K, x1 = 0.9771 | 1.37629 | 1.3733 | 1.36986 | 1.36704 | – | – | – | – | –
298.15 K, x1 = 1 | 1.37607 | 1.37308 | 1.36965 | 1.36683 | – | – | – | – | –
